This is an account of results in publication PMC11452651 (Nature Communications, 2024).

The target of one assay is ERK2 (Homo sapiens, UniProt P28482). As to the kind of experiment: Fluorescence polarization. The class given is binding. The note with it: ERK2 Kiapp, Table 2, different electron withdrawing groups at C2 or cyclopentenone scaffold.
The target in another assay is p38α (Homo sapiens, UniProt Q16539). Kind of assay: Fluorescence polarization. The note with it: p38 Kiapp. The class given is binding.
The target of a further assay is JNK1 (Homo sapiens, UniProt P45983). Kind of assay: Fluorescence polarization. The note with it: JNK1 Kiapp. It counts as binding.
Assay [1] relates to AP-1 promoter mediated transcription. It counts as cell-based. The conditions noted are these: 1 μM, + PMA, 6 h.
The mark [2] stands for this setting: Table 2, different electron withdrawing groups at C2 or cyclopentenone scaffold.

Chain of JNK1 (P45983 whole entry): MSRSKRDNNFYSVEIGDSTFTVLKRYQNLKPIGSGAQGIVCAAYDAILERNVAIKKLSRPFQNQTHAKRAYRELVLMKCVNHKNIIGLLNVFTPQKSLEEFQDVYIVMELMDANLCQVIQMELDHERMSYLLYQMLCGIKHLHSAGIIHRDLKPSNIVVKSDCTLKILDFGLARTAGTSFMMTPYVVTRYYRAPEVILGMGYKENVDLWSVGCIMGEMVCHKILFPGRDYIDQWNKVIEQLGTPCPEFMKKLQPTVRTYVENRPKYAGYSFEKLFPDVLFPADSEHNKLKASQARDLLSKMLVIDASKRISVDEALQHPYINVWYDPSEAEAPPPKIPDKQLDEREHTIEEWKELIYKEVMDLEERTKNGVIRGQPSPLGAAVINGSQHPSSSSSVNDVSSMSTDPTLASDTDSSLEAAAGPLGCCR
Chain of p38α (Q16539 whole entry): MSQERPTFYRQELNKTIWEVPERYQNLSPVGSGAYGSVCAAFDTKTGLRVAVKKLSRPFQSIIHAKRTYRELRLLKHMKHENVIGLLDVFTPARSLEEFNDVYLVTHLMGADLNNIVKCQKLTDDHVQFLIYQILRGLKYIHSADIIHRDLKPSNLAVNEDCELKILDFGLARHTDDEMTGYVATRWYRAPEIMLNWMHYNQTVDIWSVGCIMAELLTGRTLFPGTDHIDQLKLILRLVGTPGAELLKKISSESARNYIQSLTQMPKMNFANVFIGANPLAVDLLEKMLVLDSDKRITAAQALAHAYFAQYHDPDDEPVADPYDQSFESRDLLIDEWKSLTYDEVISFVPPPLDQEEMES
Chain of ERK2 (P28482 whole entry): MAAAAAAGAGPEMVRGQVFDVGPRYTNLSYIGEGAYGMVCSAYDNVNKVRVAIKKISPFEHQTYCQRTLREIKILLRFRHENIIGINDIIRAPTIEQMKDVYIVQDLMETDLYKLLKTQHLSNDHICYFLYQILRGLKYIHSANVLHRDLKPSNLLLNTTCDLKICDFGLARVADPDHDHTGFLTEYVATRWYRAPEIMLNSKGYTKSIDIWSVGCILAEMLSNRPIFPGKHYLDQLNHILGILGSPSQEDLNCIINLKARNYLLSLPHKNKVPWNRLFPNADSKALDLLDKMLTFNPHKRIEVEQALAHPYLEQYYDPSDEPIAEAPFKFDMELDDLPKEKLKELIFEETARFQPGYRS

Take `COC(=O)C1=CC(C)(C)CC1=O` [compound 25]: the Ki on ERK2 is 136 ± 14.1 µM; at p38α (setting [2]) it was 28 ± 2.4 µM; at JNK1 (setting [2]), > 200 µM.
Take `Cc1cc(-c2cccc(-n3cc(COC(=O)[C@]4(C)C=C(C(=O)OC(C)(C)C)C(=O)CC4)nn3)c2)c(C)c2c1CNCC2` [33S]: the Ki at p38α (Table 4, C4-extended compounds) amounted to 2.8 ± 0.7 µM; on JNK1 (Table 4, C4-extended compounds), 8.8 ± 2.6 µM.
As to `C#CCCOC(=O)[C@]1(C)C=C(C(=O)OC(C)(C)C)C(=O)CC1` [29S], the Ki was found to be 1.1 ± 0.1 µM at p38α (Table 4, C4-extended compounds) and 2.4 ± 0.3 µM on JNK1 (Table 4, C4-extended compounds).
With `CC1(C)C=C(C(=O)OC(C)(C)C)C(=O)C1` [compound 26], the figures for the Ki at ERK2, at p38α (setting [2]) and on JNK1 (setting [2]) were 169 ± 8.7 µM, 27.4 ± 3.3 µM and > 200 µM, respectively.
For the molecule `O=C(Nc1ccc2[nH]nc(-c3ccncc3)c2c1)[C@@H]1CCN(CC(=O)N2CCN(c3ccc(-c4ncccn4)cc3)CC2)C1` [SCH772984], the “effect on AP-1 mediated transcription” value in assay [1] is on record as “attenuate”.
Same read-out and setting: under `Oc1ccc(-c2nc(-c3ccncc3)c(-c3ccc(F)cc3)[nH]2)cc1` [SB202190] stands “attenuate”.
